Test results taken from the NIST ThermoML archive (doi:10.1016/j.fluid.2004.09.013).

Details: for vapor or sublimation pressure: Liquid; for mass density: Fluid (supercritical or subcritical phases), Vibrating tube method

C/C=C/C [(E)-2-butene]
Details | vapor or sublimation pressure [kPa]
391.25 K | 2128.9
396.15 K | 2323.1
401.02 K | 2529.8
405.96 K | 2755.8
411.21 K | 3016
416.99 K | 3326
423.45 K | 3697

Details | mass density [kg/m3]
393.24 K, 2756 kPa | 454.89
393.24 K, 10003 kPa | 497.51
393.24 K, 19992 kPa | 528.52
393.24 K, 24995 kPa | 539.91
393.24 K, 29988 kPa | 549.71
393.24 K, 34990 kPa | 558.37
393.24 K, 39993 kPa | 566.17
393.25 K, 4997 kPa | 472.39
393.25 K, 14998 kPa | 514.88
398.24 K, 2959 kPa | 443.84
398.24 K, 4981 kPa | 462.17
398.24 K, 19993 kPa | 522.99
398.24 K, 24990 kPa | 534.84
398.24 K, 29994 kPa | 545.03
398.24 K, 34989 kPa | 553.97
398.24 K, 39985 kPa | 561.98
398.25 K, 9988 kPa | 490.01
398.25 K, 14985 kPa | 508.6
403.24 K, 3180 kPa | 432.03
403.24 K, 4993 kPa | 451.14
403.24 K, 20001 kPa | 517.41
403.24 K, 24988 kPa | 529.74
403.24 K, 29983 kPa | 540.28
403.24 K, 40005 kPa | 557.82
403.25 K, 9990 kPa | 482.36
403.25 K, 14985 kPa | 502.24
403.25 K, 34985 kPa | 549.53
408.25 K, 3414 kPa | 419.31
408.25 K, 4983 kPa | 439.35
408.25 K, 9983 kPa | 474.42
408.25 K, 14983 kPa | 495.75
408.25 K, 19999 kPa | 511.74
408.25 K, 24993 kPa | 524.63
408.25 K, 29986 kPa | 535.55
408.25 K, 35006 kPa | 545.13
408.25 K, 39984 kPa | 553.58
413.25 K, 3663 kPa | 405.52
413.25 K, 4996 kPa | 426.54
413.25 K, 9995 kPa | 466.32
413.25 K, 14985 kPa | 489.18
413.25 K, 19983 kPa | 505.96
413.25 K, 24984 kPa | 519.43
413.25 K, 30003 kPa | 530.83
413.25 K, 34985 kPa | 540.64
413.25 K, 39999 kPa | 549.4
418.25 K, 3926 kPa | 390.44
418.25 K, 5005 kPa | 412.09
418.25 K, 10002 kPa | 457.93
418.25 K, 14984 kPa | 482.48
418.25 K, 19988 kPa | 500.19
418.25 K, 25008 kPa | 514.29
418.25 K, 30007 kPa | 526.05
418.25 K, 34987 kPa | 536.18
418.25 K, 40000 kPa | 545.19
423.25 K, 4203 kPa | 373.85
423.25 K, 4985 kPa | 394.86
423.25 K, 9986 kPa | 449.09
423.25 K, 14991 kPa | 475.65
423.25 K, 20002 kPa | 494.39
423.25 K, 24993 kPa | 509.02
423.25 K, 30004 kPa | 521.25
423.25 K, 34988 kPa | 531.71
423.25 K, 39993 kPa | 540.98
428.25 K, 4495 kPa | 355.87
428.25 K, 4987 kPa | 374.39
428.25 K, 9990 kPa | 440.12
428.25 K, 14983 kPa | 468.7
428.25 K, 20010 kPa | 488.52
428.25 K, 24997 kPa | 503.78
428.25 K, 30004 kPa | 516.44
428.25 K, 34994 kPa | 527.25
428.25 K, 39986 kPa | 536.76
433.25 K, 5019 kPa | 349.08
433.25 K, 9991 kPa | 430.38
433.25 K, 14995 kPa | 461.71
433.25 K, 19998 kPa | 482.53
433.25 K, 25004 kPa | 498.52
433.25 K, 30001 kPa | 511.61
433.25 K, 34993 kPa | 522.78
433.25 K, 39997 kPa | 532.57
438.25 K, 5017 kPa | 309.55
438.25 K, 9985 kPa | 420.62
438.25 K, 14989 kPa | 454.5
438.25 K, 19998 kPa | 476.52
438.25 K, 25008 kPa | 493.22
438.25 K, 30004 kPa | 506.79
438.25 K, 34989 kPa | 518.29
438.25 K, 39985 kPa | 528.34
443.25 K, 5019 kPa | 241.91
443.25 K, 9986 kPa | 410.38
443.25 K, 14991 kPa | 447.2
443.25 K, 20002 kPa | 470.46
443.25 K, 25001 kPa | 487.86
443.25 K, 30002 kPa | 501.91
443.25 K, 34997 kPa | 513.82
443.25 K, 39989 kPa | 524.15
448.25 K, 5019 kPa | 186.22
448.25 K, 9990 kPa | 399.76
448.25 K, 14990 kPa | 439.76
448.25 K, 19992 kPa | 464.3
448.25 K, 24997 kPa | 482.49
448.25 K, 29990 kPa | 497.07
448.25 K, 34988 kPa | 509.34
448.25 K, 39987 kPa | 519.97
453.25 K, 5019 kPa | 159.59
453.25 K, 9992 kPa | 388.61
453.25 K, 14987 kPa | 432.19
453.25 K, 20001 kPa | 458.19
453.25 K, 24998 kPa | 477.11
453.25 K, 29995 kPa | 492.22
